From patent US20250346605A1, “NEW DERIVATIVES FOR TREATING TRPM3 MEDIATED DISORDERS” (Katholieke Universiteit Leuven, priority 2022, published 2025)

What follows are molecules tested against T1, mouse TRPM3α2 (mTRPM3) ion channel (Mus musculus, UniProt J9SQF3) (assay: TRPM3 ion channel driven Ca2+ uptake (Fluo-4 AM assay), PS-stimulated overexpressing HEK293 cells). Settings: flip-in HEK293 overexpressing TRPM3, stimulated with Pregnenolone sulfate (PS) 50 μM, activity ranges A, B, C.
T1 construct: expressed in transfected cells; host or cells: Flp-In HEK293
Type: cell-based
Protocol: In order to monitor the inhibition of the mouse TRPM3α2 (mTRPM3) ion channel by the compounds of the invention, a cellular system making use of an mTRPM3alpha2 or hTRPM3 overexpressing cell line (flip-in HEK293) was used. The TRPM3 channel was stimulated/opened with Pregnenolone sulfate (PS) (50 μM) which results in Ca^2+ influx.
For mTRPM3, the intracellular Ca^2+ was measured with a Calcium responsive dye, Fluor-4 AMV ester (Invitrogen). Cells were cultured until a confluence of 80-90%, washed with Versene (Invitrogen) and detached from the surface by a short incubation with 0.05% Trypsin (Invitrogen). The trypsination process was stopped by the addition of complete cell culture medium (DMEM, glutamax, 10% FCS, NEAA, Pen-Strep). Cells were collected and resuspended in Krebs buffer without Calcium at RT.
Prior the cell seeding (±2000 cells/well into a black, 384 well plate (Greiner)) the diluted compound was added in the assay plate, together with the PS dissolved in Krebs buffer containing Calcium. […] Directly after cell addition the plates were read on an Envision fluorescence reader (Perkin Elmer) by an Excitation of 485 nm and emission at 535 nm.
Channel inhibition was calculated compared to a non-PS stimulated control versus a condition stimulated with PS (50 μM) with vehicle. The ability of the compounds of the invention to inhibit this activity was determined as: Percentage inhibition=[1-((RFU determined for sample with test compound present−RFU determined for sample with positive control inhibitor) divided by (RFU determined in the presence of vehicle−RFU determined for sample with positive control inhibitor))]*100.
The activities of the Example compounds tested are depicted in the table below. The activity ranges A, B and C refer to IC50 values in the Fluo-4 AM assay as follows: “A”: IC50<1 μM; “B”: 1 μM≤IC50≤20 μM and “C”: IC50>20 μM

T1 sequence (J9SQF3 1-1709 isoform J9SQF3-12): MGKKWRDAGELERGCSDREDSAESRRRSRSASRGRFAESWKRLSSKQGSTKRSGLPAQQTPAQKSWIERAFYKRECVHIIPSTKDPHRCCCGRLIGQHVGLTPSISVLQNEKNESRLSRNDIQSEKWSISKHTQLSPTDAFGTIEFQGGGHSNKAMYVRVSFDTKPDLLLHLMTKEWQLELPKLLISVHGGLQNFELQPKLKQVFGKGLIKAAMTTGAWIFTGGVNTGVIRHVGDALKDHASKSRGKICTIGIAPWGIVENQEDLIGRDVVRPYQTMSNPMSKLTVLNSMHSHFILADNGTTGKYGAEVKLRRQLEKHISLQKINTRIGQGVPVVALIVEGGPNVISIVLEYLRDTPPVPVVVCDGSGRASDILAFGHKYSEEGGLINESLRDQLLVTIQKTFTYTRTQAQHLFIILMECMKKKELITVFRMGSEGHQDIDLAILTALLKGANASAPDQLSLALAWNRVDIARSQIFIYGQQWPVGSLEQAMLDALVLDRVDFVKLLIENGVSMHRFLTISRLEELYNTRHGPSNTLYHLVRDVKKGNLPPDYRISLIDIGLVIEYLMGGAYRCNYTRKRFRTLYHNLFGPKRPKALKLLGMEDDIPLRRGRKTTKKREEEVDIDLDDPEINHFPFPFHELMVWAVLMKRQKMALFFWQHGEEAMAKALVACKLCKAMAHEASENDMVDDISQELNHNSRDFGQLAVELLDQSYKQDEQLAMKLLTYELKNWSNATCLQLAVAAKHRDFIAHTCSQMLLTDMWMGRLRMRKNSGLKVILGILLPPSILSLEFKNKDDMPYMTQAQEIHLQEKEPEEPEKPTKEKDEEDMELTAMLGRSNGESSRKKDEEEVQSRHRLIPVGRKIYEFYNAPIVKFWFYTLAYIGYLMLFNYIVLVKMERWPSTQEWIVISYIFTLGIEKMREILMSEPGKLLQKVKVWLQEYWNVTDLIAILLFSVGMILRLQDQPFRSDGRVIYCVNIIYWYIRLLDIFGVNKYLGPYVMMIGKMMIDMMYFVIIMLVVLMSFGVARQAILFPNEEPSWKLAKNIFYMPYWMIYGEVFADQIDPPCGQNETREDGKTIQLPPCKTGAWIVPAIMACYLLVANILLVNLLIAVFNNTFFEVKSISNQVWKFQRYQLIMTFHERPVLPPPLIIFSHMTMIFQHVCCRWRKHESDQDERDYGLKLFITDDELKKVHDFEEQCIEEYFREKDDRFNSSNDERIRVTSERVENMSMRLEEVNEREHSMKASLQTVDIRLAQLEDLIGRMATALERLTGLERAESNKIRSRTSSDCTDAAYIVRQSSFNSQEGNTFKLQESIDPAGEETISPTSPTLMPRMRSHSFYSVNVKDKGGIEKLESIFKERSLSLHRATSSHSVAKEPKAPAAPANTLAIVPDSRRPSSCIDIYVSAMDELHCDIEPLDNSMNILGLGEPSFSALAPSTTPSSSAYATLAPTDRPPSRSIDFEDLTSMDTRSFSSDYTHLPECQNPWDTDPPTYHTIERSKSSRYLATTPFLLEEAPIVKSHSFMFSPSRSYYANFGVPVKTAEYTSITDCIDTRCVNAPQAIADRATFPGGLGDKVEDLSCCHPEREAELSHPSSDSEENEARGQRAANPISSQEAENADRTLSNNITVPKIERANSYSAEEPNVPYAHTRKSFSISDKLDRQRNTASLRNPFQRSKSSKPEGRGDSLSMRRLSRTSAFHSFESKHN

`Cc1ncsc1COc1cc2c(C(=O)NC3CNCC3(F)F)c(C)oc2cn1` (single isomer, unassigned) [Cpd 021-En2, N-(4,4-difluoropyrrolidin-3-yl)-2-methyl-5-[(4-methyl-1,3-thiazol-5-yl)methoxy]furo[2,3-c]pyridine-3-carboxamide] and `Cc1oc2cnc(OCc3ccccc3)cc2c1C(=O)NC1CNCC1(F)F` (single isomer, unassigned) [Cpd 015-En1, 5-(benzyloxy)-N-(4,4-difluoropyrrolidin-3-yl)-2-methylfuro[2,3-c]pyridine-3-carboxamide] cannot be ordered by IC50: greater than 20 µM for the first, greater than 20 µM for the second.

First: Cc1oc2cnc(OCc3ccccc3F)cc2c1C(=O)NC(C)C(N)=O (single isomer, unassigned) [Cpd 009-En2, 2-({5-[(2-fluorophenyl)methoxy]-2-methylfuro[2,3-c]pyridin-3-yl}formamido)propanamide]
Second: Cc1oc2cnc(OCc3ccccc3F)cc2c1C(=O)N[C@H](C(N)=O)[C@@H](C)O [Cpd 002, (2S,3R)-2-({5-[(2-fluorophenyl)methoxy]-2-methylfuro[2,3-c]pyridin-3-yl}formamido)-3-hydroxybutanamide]
The IC50 of the first is higher: 1 to 20 µM for the first, less than 1 µM for the second.

First: Cc1oc2cnc(OCCc3ccccc3)cc2c1C(=O)NC1CNCC1(F)F (centres unmarked) [Cpd 022-En1, N-(4,4-difluoropyrrolidin-3-yl)-2-methyl-5-(2-phenylethoxy)furo[2,3-c]pyridine-3-carboxamide]
Second: Cc1ncsc1COc1cc2c(C(=O)NC3CNCC3(F)F)c(C)oc2cn1 (single isomer, unassigned) [Cpd 021-En1, N-(4,4-difluoropyrrolidin-3-yl)-2-methyl-5-[(4-methyl-1,3-thiazol-5-yl)methoxy]furo[2,3-c]pyridine-3-carboxamide]
The IC50 of the first is higher: 1 to 20 µM for the first, less than 1 µM for the second. The second is the more potent here.

`COc1ncccc1COc1cc2c(C(=O)NC3(CO)CC3)c(C)oc2cn1` [Cpd 032, N-[1-(hydroxymethyl)cyclopropyl]-5-[(2-methoxypyridin-3-yl)methoxy]-2-methylfuro[2,3-c]pyridine-3-carboxamide] and `Cc1oc2cnc(OCc3ccccn3)cc2c1C(=O)NC1(CO)CC1` [Cpd 031, N-[1-(hydroxymethyl)cyclopropyl]-2-methyl-5-[(pyridin-2-yl)methoxy]furo[2,3-c]pyridine-3-carboxamide] cannot be ordered by IC50: greater than 20 µM for the first, greater than 20 µM for the second.

First: Cc1ncsc1COc1cc2c(C(=O)NC(CO)C(N)=O)c(C)oc2cn1 (single isomer, unassigned) [Cpd 013-En2, 3-hydroxy-2-({2-methyl-5-[(4-methyl-1,3-thiazol-5-yl)methoxy]furo[2,3-c]pyridin-3-yl}formamido)propanamide]
Second: Cc1ncsc1COc1cc2c(C(=O)NC(C)C(N)=O)c(C)oc2cn1 (single isomer, unassigned) [Cpd 005-En2, 2-({2-methyl-5-[(4-methyl-1,3-thiazol-5-yl)methoxy]furo[2,3-c]pyridin-3-yl}formamido)propanamide]
The IC50 of the first is lower: less than 1 µM for the first, greater than 20 µM for the second.

First: Cc1ncsc1COc1cc2c(C(=O)NC3(CO)CCC3)c(C)oc2cn1 [Cpd 028, N-[1-(hydroxymethyl)cyclobutyl]-2-methyl-5-[(4-methyl-1,3-thiazol-5-yl)methoxy]furo[2,3-c]pyridine-3-carboxamide]
Second: Cc1ncsc1COc1cc2c(C(=O)NC3(CO)CC3)c(C)oc2cn1 [Cpd 030, N-[1-(hydroxymethyl)cyclopropyl]-2-methyl-5-[(4-methyl-1,3-thiazol-5-yl)methoxy]furo[2,3-c]pyridine-3-carboxamide]
The IC50 of the first is lower: 1 to 20 µM for the first, greater than 20 µM for the second.

Compared with `Cc1ncsc1COc1cc2c(C(=O)NC3(C(N)=O)COC3)c(C)oc2cn1` [Cpd 019, N-(3-carbamoyloxetan-3-yl)-2-methyl-5-[(4-methyl-1,3-thiazol-5-yl)methoxy]furo[2,3-c]pyridine-3-carboxamide], `Cc1ncsc1COc1cc2c(C(=O)NC(C)C(N)=O)c(C)oc2cn1` (single isomer, unassigned) [Cpd 005-En1, 2-({2-methyl-5-[(4-methyl-1,3-thiazol-5-yl)methoxy]furo[2,3-c]pyridin-3-yl}formamido)propanamide] is lower in IC50: greater than 20 µM for the first, 1 to 20 µM for the second.

First: Cc1ncsc1COc1cc2c(C(=O)NC(CO)C(N)=O)c(C)oc2cn1 (single isomer, unassigned) [Cpd 013-En1, 3-hydroxy-2-({2-methyl-5-[(4-methyl-1,3-thiazol-5-yl)methoxy]furo[2,3-c]pyridin-3-yl}formamido)propanamide]
Second: Cc1ncc(COc2cc3c(C(=O)N[C@@H](CO)C(N)=O)c(C)oc3cn2)s1 [Cpd 001, (2S)-3-hydroxy-2-({2-methyl-5-[(2-methyl-1,3-thiazol-5-yl)methoxy]furo[2,3-c]pyridin-3-yl}formamido)propanamide]
The IC50 of the first is higher: greater than 20 µM for the first, 1 to 20 µM for the second.

`Cc1oc2cnc(OCc3ccccn3)cc2c1C(=O)NC(C)C(N)=O` (single isomer, unassigned) [Cpd 006 _ En2, 2-({2-methyl-5-[(pyridin-2-yl)methoxy]furo[2,3-c]pyridin-3-yl}formamido)propanamide] and `Cc1oc2cnc(OCc3ccccn3)cc2c1C(=O)NC(C)(C)C(N)=O` [Cpd 012, 2-methyl-2-({2-methyl-5-[(pyridin-2-yl)methoxy]furo[2,3-c]pyridin-3-yl}formamido)propanamide] fall in the same range of IC50: 1 to 20 µM for the first, 1 to 20 µM for the second.

`Cc1oc2cnc(OCc3ccccc3F)cc2c1C(=O)NC(CO)C(N)=O` (single isomer, unassigned) [Cpd 008-En1, 2-({5-[(2-fluorophenyl)methoxy]-2-methylfuro[2,3-c]pyridin-3-yl}formamido)-3-hydroxypropanamide] and `Cc1oc2cnc(OCc3ccccc3F)cc2c1C(=O)NC(C)(C)C(N)=O` [Cpd 007, 2-({5-[(2-fluorophenyl)methoxy]-2-methylfuro[2,3-c]pyridin-3-yl}formamido)-2-methylpropanamide] fall in the same range of IC50: 1 to 20 µM for the first, 1 to 20 µM for the second.

`Cc1ncsc1COc1cc2c(C(=O)NC3(CO)CCOCC3)c(C)oc2cn1` [Cpd 035, N-[4-(hydroxymethyl)oxan-4-yl]-2-methyl-5-[(4-methyl-1,3-thiazol-5-yl)methoxy]furo[2,3-c]pyridine-3-carboxamide] and `Cc1ncsc1COc1cc2c(C(=O)NC(C)(C)C(N)=O)c(C)oc2cn1` [Cpd 011, 2-methyl-2-({2-methyl-5-[(4-methyl-1,3-thiazol-5-yl)methoxy]furo[2,3-c]pyridin-3-yl}formamido)propanamide] fall in the same range of IC50: 1 to 20 µM for the first, 1 to 20 µM for the second.

`Cc1oc2cnc(OCc3ccccc3F)cc2c1C(=O)NC1CCN(CCO)C1=O` (single isomer, unassigned) [Cpd 017-En2, 5-[(2-fluorophenyl)methoxy]-N-[1-(2-hydroxyethyl)-2-oxopyrrolidin-3-yl]-2-methylfuro[2,3-c]pyridine-3-carboxamide] and `Cc1oc2cnc(OCc3ccccc3)cc2c1C(=O)NC(C)C(N)=O` (centres unmarked) [Cpd 010-Enl, 2-{[5-(benzyloxy)-2-methylfuro[2,3-c]pyridin-3-yl]formamido}propanamide] fall in the same range of IC50: 1 to 20 µM for the first, 1 to 20 µM for the second.

`Cc1oc2cnc(OCc3ccccn3)cc2c1C(=O)NC(C)C(N)=O` (single isomer, unassigned) [Cpd 006 _ En1, 2-({2-methyl-5-[(pyridin-2-yl)methoxy]furo[2,3-c]pyridin-3-yl}formamido)propanamide] and `Cc1oc2cnc(OCc3cccnc3C(F)(F)F)cc2c1C(=O)N[C@H]1CCNCC1(F)F` [Cpd 026, N-[(4S)-3,3-difluoropiperidin-4-yl]-2-methyl-5-{[2-(trifluoromethyl)pyridin-3-yl]methoxy}furo[2,3-c]pyridine-3-carboxamide] fall in the same range of IC50: 1 to 20 µM for the first, 1 to 20 µM for the second.
